Measurements published in patent US3983105A, “Penicillins” (Bayer Aktiengesellschaft, priority 1971, dated 1976).
“And” between values parts separate entries of the source, which are not always exact repeats. Equal entries are not always repeated. Where two headings read alike, the source gives them in different places. One block for each compound: values may come before it.

Columns and labels:
Pseudomonas aeruginosa = test: MIC, test tube serial dilution, Pseudomonas aeruginosa; type: cell-based
Klebsiella-Aerobacter [1] = test: MIC, test tube serial dilution, Klebsiella-Aerobacter; type: cell-based
Escherichia coli = test: MIC, test tube serial dilution, Escherichia coli; type: cell-based
Proteus vulgaris = test: MIC, test tube serial dilution, Proteus vulgaris; type: cell-based
Staphylococcus aureus = test: MIC, test tube serial dilution, Staphylococcus aureus; type: cell-based
Klebsiella-Aerobacter [2] = settings: in vivo; cited from earlier work
Serratia marcescens = test: MIC, test tube serial dilution, Serratia marcescens; type: cell-based
Providencia = test: MIC, test tube serial dilution, Providencia; type: cell-based
Proteus rettgeri = test: MIC, test tube serial dilution, Proteus rettgeri; type: cell-based
Proteus mirabilis = test: MIC, test tube serial dilution, Proteus mirabilis; type: cell-based
Proteus morganii = test: MIC, test tube serial dilution, Proteus morganii; type: cell-based
Haemophilus influenzae = test: MIC, test tube serial dilution, Haemophilus influenzae; type: cell-based
Streptococcus faecalis = test: MIC, test tube serial dilution, Streptococcus faecalis; type: cell-based
in vivo = settings: mouse, iv
[3] = strain 1756 (BRL 1 756), 24 hours, 37°C

Compound: CC1(C)S[C@@H]2[C@H](NC(=O)[C@H](N)c3ccccc3)C(=O)N2[C@H]1C(=O)O [Ampicillin, α-aminobenzylpenicillin, reference compound]
MIC (Pseudomonas aeruginosa; Table 3, strain Walter): 200 U/ml
MIC (Pseudomonas aeruginosa; strain Bonn, 24 hours, 37°C): 200 U/ml
MIC (Pseudomonas aeruginosa; strain Walter, 24 hours, 37°C): 200 U/ml
MIC (Klebsiella-Aerobacter [1]; Table 3, strain 63): 100-200 U/ml
MIC (Klebsiella-Aerobacter [1]; Table 3, strain K 10): 100-200 U/ml
MIC (Escherichia coli; Table 3, strain 183/58): 200 U/ml
MIC (Escherichia coli; Table 3, strain A 261): > 400 U/ml
MIC (Escherichia coli; Table 3, strain C 165): 6 U/ml
MIC (Escherichia coli; strain 183/58, 24 hours, 37°C): 200 U/ml
MIC (Escherichia coli; strain A 261, 24 hours, 37°C): > 400 U/ml
MIC (Proteus vulgaris; Table 3, strain 1017): 400 U/ml
MIC (Proteus vulgaris; strain 1017, 24 hours, 37°C): 400 U/ml
MIC (Staphylococcus aureus; Table 3, strain 133): < 1 U/ml
effectiveness against infections (Klebsiella-Aerobacter [2]): not able to combat infections

MIC (Pseudomonas aeruginosa; strain A): 25 U/ml
MIC (Pseudomonas aeruginosa; strain Bonn, 24 hours, 37°C): 200 U/ml
MIC (Pseudomonas aeruginosa; strain E 27 500): 100 U/ml
MIC (Pseudomonas aeruginosa; strain F 41, 24 hours, 37°C): 100 U/ml
MIC (Pseudomonas aeruginosa; strain V 10 797): 50 U/ml
MIC (Pseudomonas aeruginosa; strain V 10 818): 100 U/ml
MIC (Pseudomonas aeruginosa; strain V 10 887): 100 U/ml
MIC (Pseudomonas aeruginosa; strain V 10 900): 50 U/ml
MIC (Pseudomonas aeruginosa; strain Walter, 24 hours, 37°C): 100 U/ml
MIC (Klebsiella-Aerobacter [1]; aerogenes 418): 400 U/ml
MIC (Klebsiella-Aerobacter [1]; strain 60): 100 U/ml
MIC (Klebsiella-Aerobacter [1]; strain 62): 100 U/ml
MIC (Klebsiella-Aerobacter [1]; strain 63, 24 hours, 37°C): 400 U/ml
MIC (Klebsiella-Aerobacter [1]; strain 69): > 400 U/ml
MIC (Klebsiella-Aerobacter [1]; strain 70): 400 U/ml
MIC (Klebsiella-Aerobacter [1]; strain 75): > 400 U/ml
MIC (Klebsiella-Aerobacter [1]; strain 1852): > 400 U/ml
MIC (Klebsiella-Aerobacter [1]; strain 1871): 400 U/ml
MIC (Klebsiella-Aerobacter [1]; strain K 10, 24 hours, 37°C): > 400 U/ml
MIC (Escherichia coli; strain 14, 24 hours, 37°C): 1.6 U/ml
MIC (Escherichia coli; strain 1465): > 400 U/ml
MIC (Escherichia coli; strain A 261, 24 hours, 37°C): 400 U/ml
MIC (Escherichia coli; strain B 94): 1.6 U/ml
MIC (Escherichia coli; strain N): 6 U/ml
MIC (Escherichia coli; strain S): 400 U/ml
MIC (Escherichia coli; strain T 7): > 400 U/ml
MIC (Escherichia coli; strain T 20/2): > 400 U/ml
MIC (Serratia marcescens; strain 3): 400 U/ml
MIC (Serratia marcescens; strain 7): 100 U/ml
MIC (Serratia marcescens; strain 9): 6 U/ml
MIC (Serratia marcescens; strain 13): 6 U/ml
MIC (Serratia marcescens; strain K): 6 U/ml
MIC (Providencia; strain 930): 6 U/ml
MIC (Proteus rettgeri; Sp.): 1.6 U/ml
MIC (Proteus rettgeri; strain 1 050): > 400 U/ml
MIC (Proteus rettgeri; strain 824): > 400 U/ml
MIC (Proteus mirabilis; Sp.): 1.6 U/ml
MIC (Proteus mirabilis; strain 605): 400 U/ml
MIC (Proteus mirabilis; strain G.): 1.6 U/ml
MIC (Proteus morganii; strain 1 102): > 800 U/ml
MIC (Proteus morganii; strain 932, 24 hours, 37°C): 6 U/ml
MIC (Proteus vulgaris; strain 3 400): 50 U/ml
MIC (Haemophilus influenzae; strain 2 689): 1.6 U/ml
MIC (Haemophilus influenzae; strain 2 718): 0.8 U/ml
MIC (Haemophilus influenzae; strain 2 786): 1.6 U/ml
MIC (Haemophilus influenzae; strain 2 788): < 0.4 U/ml
MIC (Streptococcus faecalis; strain 8 698): 100 U/ml
MIC (Streptococcus faecalis; strain 8 709): 200 U/ml
MIC (Streptococcus faecalis; strain 8 711): 50 U/ml
MIC (Staphylococcus aureus; strain P 209): < 0.8 U/ml
MIC (Staphylococcus aureus; strain SG 511): < 0.8 U/ml
Compound: CC1(C)S[C@@H]2[C@H](NC(=O)C(C(=O)O)c3ccccc3)C(=O)N2[C@H]1C(=O)O (stereo partly drawn) [Carbenicillin, reference compound]
effectiveness against infections (Klebsiella-Aerobacter [2]): only effective in man in the case of infections caused by Klebsiella-Aerobacter if administered in a continuous high dosage

Compound: CC1(C)S[C@@H]2[C@H](NC(=O)[C@H](NC(=O)N3CCN(S(C)(=O)=O)C3=O)c3ccccc3)C(=O)N2[C@H]1C(=O)O [Example 4, Sodium D(-)-α-[(3-methylsulphonyl-imidazolidin-2-on-1-yl)-carbonylamino]-benzylpencillin]
MIC (Pseudomonas aeruginosa; strain A): 12.5 U/ml
MIC (Pseudomonas aeruginosa; strain Bonn, 24 hours, 37°C): 16 - 32 U/ml
MIC (Pseudomonas aeruginosa; strain E 27 500): 12.5 U/ml
MIC (Pseudomonas aeruginosa; strain V 10 797): 12.5 U/ml
MIC (Pseudomonas aeruginosa; strain V 10 818): 25 U/ml
MIC (Pseudomonas aeruginosa; strain V 10 887): 12.5 U/ml
MIC (Pseudomonas aeruginosa; strain V 10 900): 12.5 U/ml
MIC (Pseudomonas aeruginosa; strain Walter, 24 hours, 37°C): 4-16 U/ml
MIC (Klebsiella-Aerobacter [1]): < 0.8 U/ml
MIC (Klebsiella-Aerobacter [1]; aerogenes 418): 3 U/ml
MIC (Klebsiella-Aerobacter [1]; strain 62): 1.6 U/ml
MIC (Klebsiella-Aerobacter [1]; strain 63, 24 hours, 37°C): 4 - 16 U/ml
MIC (Klebsiella-Aerobacter [1]; strain 69): 1.6 U/ml
MIC (Klebsiella-Aerobacter [1]; strain 70): 3 U/ml
MIC (Klebsiella-Aerobacter [1]; strain 75): 6 U/ml
MIC (Klebsiella-Aerobacter [1]; strain 1852): > 400 U/ml
MIC (Klebsiella-Aerobacter [1]; strain 1871): 6 U/ml
MIC (Klebsiella-Aerobacter [1]; strain K 10, 24 hours, 37°C): 4 - 16 U/ml
MIC (Escherichia coli; strain 26/6): < 0.8 U/ml
MIC (Escherichia coli; strain 55 B 5): < 0.8 U/ml
MIC (Escherichia coli; strain 183/58, 24 hours, 37°C): 1 - 4 U/ml
MIC (Escherichia coli; strain 1465): > 400 U/ml
MIC (Escherichia coli; strain A 261, 24 hours, 37°C): 32 - 64 U/ml
MIC (Escherichia coli; strain B): < 0.8 U/ml
MIC (Escherichia coli; strain B 94): < 0.8 U/ml
MIC (Escherichia coli; strain C 165, 24 hours, 37°C): 1 - 4 U/ml
MIC (Escherichia coli; strain N): 1.6 U/ml
MIC (Escherichia coli; strain S): 32 U/ml
MIC (Escherichia coli; strain T 7): > 400 U/ml
MIC (Escherichia coli; strain T 20/2): > 400 U/ml
MIC (Serratia marcescens; strain 2): 1.6 U/ml
MIC (Serratia marcescens; strain 3): 12.5 U/ml
MIC (Serratia marcescens; strain 4): 1.6 U/ml
MIC (Serratia marcescens; strain 6): 1.6 U/ml
MIC (Serratia marcescens; strain 7): 1.6 U/ml
MIC (Serratia marcescens; strain 9): < 0.8 U/ml
MIC (Serratia marcescens; strain 13): < 0.8 U/ml
MIC (Serratia marcescens; strain K): < 0.8 U/ml
MIC (Providencia; strain 930): < 0.8 U/ml
MIC (Providencia; strain 933): 12.5 U/ml
MIC (Providencia; strain 945): < 0.8 U/ml
MIC (Proteus rettgeri; Sp.): 0.8 U/ml
MIC (Proteus rettgeri; strain 1 050): > 400 U/ml
MIC (Proteus rettgeri; strain 824): > 400 U/ml
MIC (Proteus mirabilis; Sp.): 1.6 U/ml
MIC (Proteus mirabilis; strain 1 235): 1.6 U/ml
MIC (Proteus mirabilis; strain 605): 3 U/ml
MIC (Proteus mirabilis; strain G.): < 0.4 U/ml
MIC (Proteus morganii; Sp.): 3 U/ml
MIC (Proteus morganii; strain 1 102): 200 U/ml
MIC (Proteus vulgaris; strain 3 400): 6 U/ml
MIC (Proteus vulgaris; strain 1017, 24 hours, 37°C): 1.6 U/ml
MIC (Haemophilus influenzae; strain 2 684): 0.1 U/ml
MIC (Haemophilus influenzae; strain 2 689): 0.25 U/ml
MIC (Haemophilus influenzae; strain 2 718): 0.1 U/ml
MIC (Haemophilus influenzae; strain 2 786): 0.06 U/ml
MIC (Haemophilus influenzae; strain 2 788): 0.5 U/ml
MIC (Streptococcus faecalis; ATCC 9790, 24 hours, 37°C): 16-32 U/ml
MIC (Streptococcus faecalis; strain 8 698): 1.6 U/ml
MIC (Streptococcus faecalis; strain 8 709): 12.5 U/ml
MIC (Streptococcus faecalis; strain 8 711): 3 U/ml
MIC (Staphylococcus aureus): 200 U/ml
MIC (Staphylococcus aureus; [3]): 64-256 U/ml
MIC (Staphylococcus aureus; strain P 209): < 0.8 U/ml
MIC (Staphylococcus aureus; strain SG 511): < 0.8 U/ml

Compound: CNC(=O)N1CCN(C(=O)N[C@@H](C(=O)N[C@@H]2C(=O)N3[C@@H]2SC(C)(C)[C@@H]3C(=O)O)c2ccccc2)C1=O [Example 2, Sodium D(-)-α-[(3-methylaminocarbonyl-imidazolidin-2-on-1-yl)-carbonylamino]-benzylpenicillin]
MIC (Pseudomonas aeruginosa; strain Bonn, 24 hours, 37°C): 50 U/ml
MIC (Pseudomonas aeruginosa; strain Walter, 24 hours, 37°C): 25 U/ml
MIC (Klebsiella-Aerobacter [1]; strain 63, 24 hours, 37°C): 12.5 U/ml and 12 U/ml
MIC (Klebsiella-Aerobacter [1]; strain K 10, 24 hours, 37°C): 50 U/ml
MIC (Escherichia coli; strain 183/58, 24 hours, 37°C): 1.6 U/ml
MIC (Escherichia coli; strain A 261, 24 hours, 37°C): 100 U/ml
MIC (Escherichia coli; strain C 165, 24 hours, 37°C): 1.6 U/ml
MIC (Proteus morganii; strain 932, 24 hours, 37°C): 1.6 U/ml
MIC (Proteus vulgaris; unit assumed): 6 µg/mL
MIC (Streptococcus faecalis; ATCC 9790, 24 hours, 37°C): 50 U/ml
MIC (Staphylococcus aureus; strain 133, 24 hours, 37°C): < 0.8 U/ml
MIC (Staphylococcus aureus; [3]): 200 U/ml
LD50 (in vivo): 3000 mg/kg
